Assay results reported in publication PMC8956739, “A synthetic lipopeptide targeting top-priority multidrug-resistant Gram-negative pathogens” (Nature Communications, 2022).
Values after ≈ are worked out from the molar mass of the structure shown. Values joined by “and” are separate entries in the source; they are usually repeats but may differ in a detail not shown here. Identical values can stand only once. Like-named read-outs stand apart in the source and are kept apart here. Residues, ends and D or L forms follow the SMILES beside them.

Legend:
[1] = test system: K. pneumoniae FADDI-KP065; type: cell-based, Klebsiella pneumoniae
In short: (§1)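 Susceptibility: microdilution MIC in CaMHB.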

[2] = test system: K. pneumoniae FADDI-KP032; type: cell-based, Klebsiella pneumoniae
In short: as §1

[3] = test system: P. aeruginosa FADDI-PA025; type: cell-based, Pseudomonas aeruginosa
In short: as §1

[4] = test system: P. aeruginosa FADDI-PA038; type: cell-based, Pseudomonas aeruginosa
In short: as §1

[5] = test system: P. aeruginosa ATCC 27853; type: cell-based, Pseudomonas aeruginosa
In short: (§2)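 Broth microdilution, CaMHB; MIC read as the antibacterial endpoint against ATCC reference strains and clinical isolates.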

[6] = test system: Swiss mice, kidney; experiment: Nephrotoxicity in mice (kidney histopathology); type: in vivo, mouse; conditions: for Kidney histopathology (SQS Score): 72 mg/kg/d subcutaneously in six divided doses every 2 h, n = 3; for Kidney histopathology, mice with the SQS score: mouse, in vivo
In short: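 Female Swiss mice (7-week-old, 22–28 g) received lipopeptides in saline either s.c. at 12 mg/kg ×6 every 2 h (total 72 mg/kg, n = 3) or i.p. at 20 or 25 mg/kg ×6 every 2 h (total 120 mg/kg, n = 6; 150 mg/kg, n = 3). Right kidney collected 20 h after last dose, fixed in 10% buffered formalin (pH 7.4), histology scored blinded.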

[7] = test system: P. aeruginosa ATCC 27853; experiment: Neutropenic mouse bloodstream infection model; type: in vivo; conditions: single IV dose 4 mg/kg; for Log10 CFU/mL blood at 4 h, Mean / Δlog10 CFU/mL blood (mean) / Log10 CFU/mL blood at 4 h, single mouse: 4 h; for Δlog10 CFU/mL blood (mean): treated minus control, mean of replicates; for Delta Log10 CFU/mL blood at 4 h, single mouse: treated mouse minus mean of vehicle mice
In short: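 Female Swiss mice made neutropenic with cyclophosphamide (150 mg/kg day −4, 100 mg/kg day −1), infected IV with 50 µL of 4 × 10^8 CFU/mL. Lipopeptide 4 mg/kg (free base) IV at 2 h post-inoculation, n = 3. Efficacy = Δlog10 CFU/mL blood versus saline at 4 h post-dose.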

[8] = test system: A. baumannii FADDI-AB030; type: cell-based, Acinetobacter baumannii
In short: as §1

[9] = test system: A. baumannii FADDI-AB034; type: cell-based, Acinetobacter baumannii
In short: as §1

[10] = test system: A. baumannii ATCC 19606; type: cell-based, Acinetobacter baumannii
In short: as §2

[11] = Acute toxicity in mice (maximum tolerated dose, IV bolus); type: in vivo, mouse; conditions: mouse, in vivo, iv, single IV bolus dose, replicates 1-4; read-out: MTD, single replicate
Procedure: (§3) Lipopeptide solutions were prepared in 0.9% saline and stored at 4 °C before use. Swiss mice (female, 7-week-old, 22–28 g) were used in the study. A mouse was administered an intravenous bolus of the lipopeptide (mg/kg free base) through a lateral tail vein (≤0.1 mL). After the injection, the mouse was released back into the cage and monitored for clinical signs of toxicity from 0 to 24 h after injection as follows: every 10 min in the first 2 h, every half hour from 2 to 4 h, every hour from 4 to 12 h, and every 2 h from 12 to 24 h.

[12] = test system: Swiss mice; experiment: as above; type: in vivo, mouse; conditions: replicates 1-4
Procedure: as §3

[13] = Distribution, accumulation and metabolism in mouse kidneys (ME-SALDI-MS imaging, histology); type: in vivo; conditions: 10 μmol/kg SC; for kidney histology, SQS scores: 6 doses Day 1 and 3 doses Day 2; for level at time molar: female, Swiss, mouse, in vivo, 10 umol/kg, 6 doses Day 1 and 3 doses Day 2, 2 h after last dose, read-out: Concentration in the kidney cortex region
Procedure: At 2 h after the last dose on Day 2, mice were rapidly euthanized. The left kidney was collected, flash-frozen in liquid nitrogen, and stored at -80 C for MS imaging analysis. The right kidney was fixed in 10% formalin for histological examination (Histopathology and Organ Pathology Unit at the University of Melbourne). The level of histological damage to the kidneys was graded as previously described. […] A total of 1 μL was spotted onto electrochemically etched, porous-silicon semiconductor substrates for desorption/ionization on silicon (DIOS)[39]. […] For lipopeptide distribution in mouse kidneys, serially sectioned 8-μm frozen slices of the kidney were loaded onto DIOS substrates and coated with a thin layer of α-CHCA using a matrix sprayer (TM-Sprayer, HTX) for MSI analysis. […] Mounted tissue was scanned for imaging alignment (Epson Perfection […]) and calibrated as previously described. Resulting polymyxin maps were visualized and normalized against the total ion current (TIC) of each section using IonView software (Shimadzu). Lipopeptide accumulation in mouse kidneys was determined by simultaneous […] analysis of kidney tissue from treated animals and serial dilutions of the drug deposited on control kidney tissue. […] The signal intensities were compared to the corresponding concentration standard curve to calculate the concentration of lipopeptide present. Putative metabolites in the kidneys treated with lipopeptides were identified by […]. Control kidney sections were used to differentiate lipopeptide metabolites from endogenous metabolites and MS/MS data from lipopeptide standards were used to differentiate lipopeptide metabolites from the parent ion generated via CID processed in the acquisition software (MALDI Solutions, Shimadzu). Levels of accumulated lipopeptide metabolites were determined by normalization to the parent ion in MSI data.

CCCCCC(=O)N[C@@H](CCN)C(=O)N[C@H](C(=O)N[C@@H](CN)C(=O)N[C@H]1CCNC(=O)[C@H]([C@@H](C)O)NC(=O)[C@H](CCN)NC(=O)[C@H](CCN)NC(=O)[C@H](CC)NC(=O)[C@@H](CC(C)C)NC(=O)[C@H](CCN)NC1=O)[C@@H](C)O [Lipopeptide F342] (HELM PEPTIDE1{[CCCCCC(=O)[*:2]].[Dab].T.[NC[C@H](N[*:1])C(=O)[*:2]].[Dab].[Dab].[dL].[Abu].[Dab].[Dab].T}$PEPTIDE1,PEPTIDE1,5:R3-11:R2$$$V2.0)
MIC K. pneumoniae FADDI-KP065 ([1]; FADDI-KP065): 0.5 µg/mL (≈ 0.461 µM) | MIC K. pneumoniae FADDI-KP032 ([2]; FADDI-KP032): 0.25 µg/mL (≈ 0.23 µM) | MIC P. aeruginosa FADDI-PA025 ([3]; FADDI-PA025): 2 µg/mL (≈ 1.84 µM) | MIC P. aeruginosa FADDI-PA038 ([4]; FADDI-PA038): 1 µg/mL (≈ 0.921 µM) | MIC P. aeruginosa ATCC 27853 ([5]; ATCC 27853): 0.5 µg/mL (≈ 0.461 µM) | MIC, No Survanta ([5]; ATCC 27853): 1 µg/mL (≈ 0.921 µM) | Kidney histopathology (SQS Score) [6]: 0 (SQS 0 = no significant change (overall score, <1)) | Kidney histopathology, mice with the SQS score [6]: 3/3 | Log10 CFU/mL blood at 4 h, Mean [7]: 7.44 Log10 CFU/mL blood | Δlog10 CFU/mL blood (mean) [7]: 0.17 log10 CFU/mL blood | Log10 CFU/mL blood at 4 h, single mouse ([7]; 4 mg/kg): 7.29 Log10 CFU/mL blood and 7.60 Log10 CFU/mL blood | Delta Log10 CFU/mL blood at 4 h, single mouse ([7]; 4 mg/kg): 0.0179 Log10 CFU/mL blood and 0.33 Log10 CFU/mL blood | MIC A. baumannii FADDI-AB030 ([8]; FADDI-AB030): 1 µg/mL (≈ 0.921 µM) | MIC A. baumannii FADDI-AB034 ([9]; FADDI-AB034): 1 µg/mL (≈ 0.921 µM) | MIC A. baumannii ATCC 19606 ([10]; ATCC 19606): 2 µg/mL (≈ 1.84 µM) | MTD [11]: 20 mg/kg | MTD, single replicate [12]: 18.4 mg/kg

CC[C@@H]1NC(=O)[C@@H](CC(C)C)NC(=O)[C@H](CCN)NC(=O)[C@@H](NC(=O)[C@H](CN)NC(=O)[C@@H](NC(=O)[C@H](CCN)NC(=O)c2ccccc2)[C@@H](C)O)CCNC(=O)[C@H]([C@@H](C)O)NC(=O)[C@H](CCN)NC(=O)[C@H](CCN)NC1=O [Lipopeptide F379] (HELM PEPTIDE1{[O=C(c1ccccc1)[*:2]].[Dab].T.[NC[C@H](N[*:1])C(=O)[*:2]].[Dab].[Dab].[dL].[Abu].[Dab].[Dab].T}$PEPTIDE1,PEPTIDE1,5:R3-11:R2$$$V2.0)
MIC K. pneumoniae FADDI-KP065 ([1]; carbapenem-resistant isolate): 2 µg/mL (≈ 1.83 µM) | MIC K. pneumoniae FADDI-KP032 ([2]; carbapenem-resistant isolate): 2 µg/mL (≈ 1.83 µM) | MIC P. aeruginosa FADDI-PA025 ([3]; MDR clinical isolate): >32 µg/mL | MIC P. aeruginosa FADDI-PA038 ([4]; carbapenem-resistant isolate): 4 µg/mL (≈ 3.67 µM) | MIC P. aeruginosa ATCC 27853 [5]: 1 µg/mL (≈ 0.916 µM) | Log10 CFU/mL blood at 4 h, Mean [7]: 5.27 Log10 CFU/mL blood | Δlog10 CFU/mL blood (mean) ([7]; 4 mg/kg): −2.67 log10 CFU/mL blood | Log10 CFU/mL blood at 4 h, single mouse ([7]; 4 mg/kg): 5.36 Log10 CFU/mL blood and 5.17 Log10 CFU/mL blood | Delta Log10 CFU/mL blood at 4 h, single mouse ([7]; 4 mg/kg): -2.58 Log10 CFU/mL blood and -2.77 Log10 CFU/mL blood | MIC A. baumannii FADDI-AB030 ([8]; carbapenem-resistant isolate): 2 µg/mL (≈ 1.83 µM) | MIC A. baumannii FADDI-AB034 ([9]; carbapenem-resistant isolate): 8 µg/mL (≈ 7.33 µM) | MIC A. baumannii ATCC 19606 [10]: 8 µg/mL (≈ 7.33 µM) | MTD [11]: 26 mg/kg | MTD, single replicate [12]: 23 mg/kg and 21.3 mg/kg and 16 mg/kg

CC[C@@H]1NC(=O)[C@@H](CC(C)C)NC(=O)[C@H](CCN)NC(=O)[C@@H](NC(=O)[C@H](CN)NC(=O)[C@@H](NC(=O)[C@H](CCN)NC(=O)c2ccc(F)cc2Cl)[C@@H](C)O)CCNC(=O)[C@H]([C@@H](C)O)NC(=O)[C@H](CCN)NC(=O)[C@H](CCN)NC1=O [Lipopeptide F449] (HELM PEPTIDE1{[O=C(c1ccc(F)cc1Cl)[*:2]].[Dab].T.[NC[C@H](N[*:1])C(=O)[*:2]].[Dab].[Dab].[dL].[Abu].[Dab].[Dab].T}$PEPTIDE1,PEPTIDE1,5:R3-11:R2$$$V2.0)
MIC K. pneumoniae FADDI-KP065 ([1]; FADDI-KP065): 0.25 µg/mL (≈ 0.219 µM) | MIC K. pneumoniae FADDI-KP032 ([2]; FADDI-KP032): 0.25 µg/mL (≈ 0.219 µM) | MIC P. aeruginosa FADDI-PA025 ([3]; FADDI-PA025): 2 µg/mL (≈ 1.75 µM) | MIC P. aeruginosa FADDI-PA038 ([4]; FADDI-PA038): 1 µg/mL (≈ 0.874 µM) | MIC P. aeruginosa ATCC 27853 ([5]; ATCC 27853): 0.5 µg/mL (≈ 0.437 µM) | Kidney histopathology (SQS Score) [6]: 0 (SQS 0 = no significant change (overall score, <1)) | Kidney histopathology, mice with the SQS score [6]: 3/3 | Log10 CFU/mL blood at 4 h, Mean [7]: 5.26 Log10 CFU/mL blood | Δlog10 CFU/mL blood (mean) ([7]; 4 mg/kg): −2.32 log10 CFU/mL blood | Log10 CFU/mL blood at 4 h, single mouse ([7]; 4 mg/kg): 5.17 Log10 CFU/mL blood and 5.18 Log10 CFU/mL blood and 5.44 Log10 CFU/mL blood | Delta Log10 CFU/mL blood at 4 h, single mouse ([7]; 4 mg/kg): -2.41 Log10 CFU/mL blood and -2.40 Log10 CFU/mL blood and -2.14 Log10 CFU/mL blood | MIC A. baumannii FADDI-AB030 ([8]; FADDI-AB030): 1 µg/mL (≈ 0.874 µM) | MIC A. baumannii FADDI-AB034 ([9]; FADDI-AB034): 1 µg/mL (≈ 0.874 µM) | MIC A. baumannii ATCC 19606 ([10]; ATCC 19606): 4 µg/mL (≈ 3.5 µM)

CC[C@H](C)CCCCC(=O)N[C@@H](CCN)C(=O)N[C@H](C(=O)N[C@@H](CCN)C(=O)N[C@H]1CCNC(=O)[C@H]([C@@H](C)O)NC(=O)[C@H](CCN)NC(=O)[C@H](CCN)NC(=O)[C@H](CC(C)C)NC(=O)[C@@H](CC(C)C)NC(=O)[C@H](CCN)NC1=O)[C@@H](C)O [colistin A] (HELM PEPTIDE1{[CC[C@H](C)CCCCC(=O)[*:2]].[Dab].T.[Dab].[Dab].[Dab].[dL].L.[Dab].[Dab].T}$PEPTIDE1,PEPTIDE1,5:R3-11:R2$$$V2.0)
kidney histology, SQS scores [13]: +5 (SQS + 5 = severe damage (overall score, >60)) | level at time molar [13]: 86.7 µM

CC[C@H](C)CCCCC(=O)N[C@@H](CCN)C(=O)N[C@H](C(=O)N[C@@H](CCN)C(=O)N[C@H]1CCNC(=O)[C@H]([C@@H](C)O)NC(=O)[C@H](CCN)NC(=O)[C@H](CCN)NC(=O)[C@H](CC(C)C)NC(=O)[C@@H](Cc2ccccc2)NC(=O)[C@H](CCN)NC1=O)[C@@H](C)O [polymyxin B1] (HELM PEPTIDE1{[CC[C@H](C)CCCCC(=O)[*:2]].[Dab].T.[Dab].[Dab].[Dab].[dF].L.[Dab].[Dab].T}$PEPTIDE1,PEPTIDE1,5:R3-11:R2$$$V2.0)
kidney histology, SQS scores [13]: +5 (SQS + 5 = severe damage (overall score, >60)) | level at time molar [13]: 38.2 µM
